Columns and labels:
[1] = Stability test of injectable preparation (salt in WFI, HPLC); settings: for Residual amount: in WFI 2 mg/ml
physchem = format: physicochemical; settings: 25 °C, water, thermodynamic from solid
[2] = system: SD (Sprague Dawley) male rats; experiment: Acute toxicity test in rats, single intravenous dose; format: in vivo; settings: for Number of dead animals/Number of drug-treated animals: 14 days after administration; for toxicity compared with free base: rats, i.v., Tables 7-9
[3] = as above; format: in vivo; settings: male, Sprague-Dawley, rat, in vivo, iv; rats, single i.v. dose, 14 days; read-out: Estimated LD50
[4] = Stability test of oral preparation (powder in vial, HPLC); settings: for stability in powder form: high temperatures; for Residual amount: powder (solid)
Method: It was then stored at different temperatures (25° C., 40° C., 60° C.) for 6 months and the amount of active ingredients in powder were measured by HPLC.

O=C([O-])c1cc(NCc2c(F)c(F)c(C(F)(F)F)c(F)c2F)ccc1O.[K+] [potassium salt, potassium 2-hydroxy-5-(2,3,5,6-tetrafluoro-4-trifluoromethyl-benzylamino)benzoate]
Residual amount ([1]; 25° C., day 7): 103.92 ± 1.20% | stability profile in injectable preparation ([1]; in WFI, 25-60° C., 6 months): better than that of sodium- and lithium-salt compound | solubility at 48 h (physchem): 590 mg/mL | Number of dead animals/Number of drug-treated animals ([2]; 50 mg/kg single i.v. dose): 0/6 | Number of dead animals/Number of drug-treated animals ([2]; 100 mg/kg single i.v. dose): 0/6 | Number of dead animals/Number of drug-treated animals ([2]; 150 mg/kg single i.v. dose): 0/6 | Number of dead animals/Number of drug-treated animals ([2]; 200 mg/kg single i.v. dose): 0/6 | Number of dead animals/Number of drug-treated animals ([2]; 250 mg/kg single i.v. dose): 3/3 | Number of dead animals/Number of drug-treated animals ([2]; 300 mg/kg single i.v. dose): 1/1 | Number of dead animals/Number of drug-treated animals ([2]; 500 mg/kg single i.v. dose): 2/2 | toxicity compared with free base [2]: less toxicity than free base | LD50 at 14 day [3]: 200 to 250 mg/kg | stability in powder form [4]: relatively stable in high temperatures | Residual amount ([4]; 25° C., day 0): 100.43 ± 0.30% | Residual amount ([4]; 25° C., day 30): 100.31 ± 0.25% | Residual amount ([4]; 25° C., day 60): 100.20 ± 0.55% | Residual amount ([4]; 25° C., day 90): 100.17 ± 0.46% | Residual amount ([4]; 25° C., day 120): 100.07 ± 0.43% | Residual amount ([4]; 25° C., day 180): 100.03 ± 0.80% | Residual amount ([4]; 40° C., day 0): 100.43 ± 0.30% | Residual amount ([4]; 40° C., day 30): 100.28 ± 1.10% | Residual amount ([4]; 40° C., day 60): 100.14 ± 0.80% | Residual amount ([4]; 40° C., day 90): 100.10 ± 0.71% | Residual amount ([4]; 40° C., day 120): 99.81 ± 0.78% | Residual amount ([4]; 40° C., day 180): 99.78 ± 0.31% | Residual amount ([4]; 60° C., day 0): 100.43 ± 0.30% | Residual amount ([4]; 60° C., day 30): 99.60 ± 0.50% | Residual amount ([4]; 60° C., day 60): 99.56 ± 0.85% | Residual amount ([4]; 60° C., day 90): 99.27 ± 0.80% | Residual amount ([4]; 60° C., day 120): 99.03 ± 0.90% | Residual amount ([4]; 60° C., day 180): 98.87 ± 0.92%

O=C([O-])c1cc(NCc2c(F)c(F)c(C(F)(F)F)c(F)c2F)ccc1O.[Na+] [sodium salt, sodium 2-hydroxy-5-(2,3,5,6-tetrafluoro-4-trifluoromethyl-benzylamino)benzoate]
Residual amount ([1]; 25° C., day 0): 104.15 ± 0.54% | Residual amount ([1]; 25° C., day 3): 101.89 ± 1.16% | Residual amount ([1]; 25° C., day 7): 100.59 ± 0.19% | Residual amount ([1]; 25° C., day 14): 101.63 ± 0.19% | Residual amount ([1]; 25° C., day 21): 99.25 ± 1.41% | Residual amount ([1]; 25° C., day 30): 98.50 ± 1.64% | Residual amount ([1]; 25° C., day 60): 98.52 ± 0.02% | Residual amount ([1]; 25° C., day 90): 94.04 ± 4.28% | Residual amount ([1]; 25° C., day 120): 92.79 ± 1.01% | Residual amount ([1]; 25° C., day 150): 90.18 ± 3.14% | Residual amount ([1]; 25° C., day 180): 85.56 ± 4.58% | Residual amount ([1]; 40° C., day 0): 104.15 ± 0.54% | Residual amount ([1]; 40° C., day 3): 102.77 ± 0.08% | Residual amount ([1]; 40° C., day 7): 98.54 ± 0.71% | Residual amount ([1]; 40° C., day 14): 99.56 ± 0.72% | Residual amount ([1]; 40° C., day 21): 95.98 ± 1.50% | Residual amount ([1]; 40° C., day 30): 95.17 ± 0.07% | Residual amount ([1]; 40° C., day 60): 91.51 ± 1.17% | Residual amount ([1]; 40° C., day 90): 86.36 ± 0.90% | Residual amount ([1]; 40° C., day 120): 79.02 ± 1.05% | Residual amount ([1]; 40° C., day 150): 77.42 ± 0.71% | Residual amount ([1]; 40° C., day 180): 72.32 ± 0.38% | Residual amount ([1]; 60° C., day 0): 104.15 ± 0.54% | Residual amount ([1]; 60° C., day 3): 99.39 ± 0.43% | Residual amount ([1]; 60° C., day 7): 92.01 ± 1.27% | Residual amount ([1]; 60° C., day 14): 92.96 ± 1.28% | Residual amount ([1]; 60° C., day 21): 84.54 ± 1.34% | Residual amount ([1]; 60° C., day 30): 82.88 ± 4.35% | Residual amount ([1]; 60° C., day 60): 70.25 ± 4.27% | Residual amount ([1]; 60° C., day 90): 56.00 ± 11.70% | Residual amount ([1]; 60° C., day 120): 53.43 ± 6.30% | Residual amount ([1]; 60° C., day 150): 40.37 ± 14.41% | Residual amount ([1]; 60° C., day 180): 37.10 ± 12.35% | solubility at 48 h (physchem): 25 to 80 mg/mL | Number of dead animals/Number of drug-treated animals ([2]; 50 mg/kg single i.v. dose): 0/5 | Number of dead animals/Number of drug-treated animals ([2]; 100 mg/kg single i.v. dose): 0/5 | Number of dead animals/Number of drug-treated animals ([2]; 150 mg/kg single i.v. dose): 0/7 | Number of dead animals/Number of drug-treated animals ([2]; 175 mg/kg single i.v. dose): 1/7 | Number of dead animals/Number of drug-treated animals ([2]; 200 mg/kg single i.v. dose): 2/7 | Number of dead animals/Number of drug-treated animals ([2]; 225 mg/kg single i.v. dose): 2/7 | Number of dead animals/Number of drug-treated animals ([2]; 250 mg/kg single i.v. dose): 5/5 | toxicity compared with free base [2]: less toxicity than free base | LD50 at 14 day [3]: 225 to 250 mg/kg | stability in powder form [4]: relatively stable in high temperatures | Residual amount ([4]; 25° C., day 0): 101.33 ± 1.02% | Residual amount ([4]; 25° C., day 7): 100.75 ± 6.24% | Residual amount ([4]; 25° C., day 14): 100.45 ± 1.24% | Residual amount ([4]; 25° C., day 21): 99.76 ± 0.70% | Residual amount ([4]; 25° C., day 30): 99.61 ± 3.21% | Residual amount ([4]; 25° C., day 60): 99.60 ± 0.16% | Residual amount ([4]; 25° C., day 120): 99.51 ± 1.70% | Residual amount ([4]; 25° C., day 180): 99.19 ± 2.28% | Residual amount ([4]; 40° C., day 0): 101.33 ± 1.02% | Residual amount ([4]; 40° C., day 7): 100.81 ± 3.35% | Residual amount ([4]; 40° C., day 14): 100.69 ± 0.29% | Residual amount ([4]; 40° C., day 21): 100.57 ± 0.48% | Residual amount ([4]; 40° C., day 30): 100.46 ± 0.27% | Residual amount ([4]; 40° C., day 60): 100.07 ± 0.16% | Residual amount ([4]; 40° C., day 120): 99.94 ± 1.15% | Residual amount ([4]; 40° C., day 180): 99.89 ± 1.11% | Residual amount ([4]; 60° C., day 0): 101.33 ± 1.02% | Residual amount ([4]; 60° C., day 7): 101.27 ± 4.45% | Residual amount ([4]; 60° C., day 14): 101.14 ± 0.50% | Residual amount ([4]; 60° C., day 21): 100.15 ± 1.14% | Residual amount ([4]; 60° C., day 30): 100.10 ± 0.75% | Residual amount ([4]; 60° C., day 60): 99.91 ± 1.18% | Residual amount ([4]; 60° C., day 120): 99.81 ± 2.28% | Residual amount ([4]; 60° C., day 180): 99.75 ± 0.20%

O=C(O)c1cc(NCc2c(F)c(F)c(C(F)(F)F)c(F)c2F)ccc1O [free base form, 2-hydroxy-5-(2,3,5,6-tetrafluoro-4-trifluoromethyl-benzylamino)benzoic acid]
Number of dead animals/Number of drug-treated animals ([2]; 52 mg/kg single i.v. dose): 0/7 | Number of dead animals/Number of drug-treated animals ([2]; 68 mg/kg single i.v. dose): 1/7 | Number of dead animals/Number of drug-treated animals ([2]; 89 mg/kg single i.v. dose): 3/7 | Number of dead animals/Number of drug-treated animals ([2]; 115 mg/kg single i.v. dose): 3/7 | Number of dead animals/Number of drug-treated animals ([2]; 150 mg/kg single i.v. dose): 6/7 | Number of dead animals/Number of drug-treated animals ([2]; 171 mg/kg single i.v. dose): 6/7 | Number of dead animals/Number of drug-treated animals ([2]; 184 mg/kg single i.v. dose): 7/7 | Number of dead animals/Number of drug-treated animals ([2]; 195 mg/kg single i.v. dose): 7/7 | LD50 at 14 day [3]: 115 to 150 mg/kg

O=C([O-])c1cc(NCc2c(F)c(F)c(C(F)(F)F)c(F)c2F)ccc1O.[Li+] [lithium salt, lithium 2-hydroxy-5-(2,3,5,6-tetrafluoro-4-trifluoromethyl-benzylamino)benzoate]
solubility at 48 h (physchem): 500 mg/mL | Residual amount ([4]; 25° C., day 0): 98.56 ± 0.89% | Residual amount ([4]; 25° C., day 7): 98.32 ± 0.32% | Residual amount ([4]; 25° C., day 14): 97.69 ± 2.58% | Residual amount ([4]; 25° C., day 21): 96.87 ± 1.64% | Residual amount ([4]; 25° C., day 30): 95.01 ± 1.10% | Residual amount ([4]; 25° C., day 60): 94.78 ± 8.09% | Residual amount ([4]; 25° C., day 120): 92.69 ± 1.03% | Residual amount ([4]; 25° C., day 180): 90.85 ± 1.61% | Residual amount ([4]; 40° C., day 0): 98.56 ± 0.89% | Residual amount ([4]; 40° C., day 7): 98.16 ± 0.09% | Residual amount ([4]; 40° C., day 14): 96.18 ± 3.28% | Residual amount ([4]; 40° C., day 21): 96.02 ± 2.49% | Residual amount ([4]; 40° C., day 30): 95.96 ± 0.89% | Residual amount ([4]; 40° C., day 60): 95.70 ± 6.88% | Residual amount ([4]; 40° C., day 120): 95.58 ± 1.38% | Residual amount ([4]; 40° C., day 180): 95.40 ± 2.37% | Residual amount ([4]; 60° C., day 0): 98.56 ± 0.89% | Residual amount ([4]; 60° C., day 7): 97.49 ± 0.80% | Residual amount ([4]; 60° C., day 14): 96.45 ± 2.80% | Residual amount ([4]; 60° C., day 21): 95.87 ± 2.09% | Residual amount ([4]; 60° C., day 30): 95.69 ± 2.97% | Residual amount ([4]; 60° C., day 60): 95.51 ± 1.99% | Residual amount ([4]; 60° C., day 120): 94.84 ± 0.56% | Residual amount ([4]; 60° C., day 180): 92.48 ± 3.14%
